In patent publication US20090104278A1, “FOOD COMPOSITION FOR RECOVERY FROM FATIGUE” (Ajinomoto Co., Inc., priority 2002, published 2009):

System: CDF1 male mice
Assay: Spontaneous activity for 60 minutes after 3 hours forced walking exercise (treadmill), infrared sensor
Format: in vivo
Settings: oral, Bonito Extract A 1 g/kg in terms of a free amino acid amount, known components of Bonito Extract A, vs Control group
Experimental: Three groups (A, B and C groups) of 5-week-old CDF1 male mice, each group consisting of 8 mice (n=8 for each group), were put in a treadmill and subjected to forced walking exercise for 3 hours. Then, the mice of the respective groups were orally administrated, using a gastric sonde, with (1) Bonito Extract A, (2) Bonito Extract B, and (3) Bonito Extract C in an amount of 1 g/kg in terms of free amino acid amount in the bonito extracts. Subsequently, their spontaneous activity for 60 minutes was measured using a spontaneous activity measuring apparatus provided with an infrared sensor, and comparison with the control group (Control group which was administrated with only deionized distilled water in the same manner as the samples) was carried out. The respective samples and the distilled water were administered in amounts of 0.5 mL. The result is represented in FIG. 1.
In the Figure, *, ** and *** represent significant differences from the control group, * being at p<0.05, ** being at p<0.01, and *** being at p<0.001. “Total counts” refers to the number of times of exercising that were measured with the infrared sensor for 60 minutes.
Three groups of 5-week-old CDF1 male mice, each group consisting of 8 mice (n=8 for each group), were put in a treadmill and subjected to forced walking exercise for 3 hours. […]

Compound	recovery of spontaneous activity (Test Example 6, FIGS. 8, 9 and 10)
[Cl-].[Na+] [NaCl]	recovery of spontaneous activity was not observed
inosine 1-phosphate [nucleic acid]	recovery of spontaneous activity was not observed
